# What was measured:
# [1] = in vivo; cited from earlier work
# [2] = PET scan of ^11C-glyburide uptake in left and right brain hemispheres of MCAO rats; type: in vivo, rat; details: intravenous injection, FIG. 1B
# [3] = in vivo; cited from earlier work; remark: listed apart in the source
# MCAO mice = test: Therapeutic benefits in MCAO stroke mice (survival, TTC infarct volume, neurological score); type: in vivo; details: same amount of BA NPs and/or glyburide as in Gly-NPs, i.v. at 0, 24, 48 h, FIG. 6C, D
# From the text: MCAO models were generated according to Cai, et al. Neurosci Lett 2015, 597, 127-31; Guo, et al. ACS nano 2018, 12 (8), 8723-8732; Han, et al. Nanomedicine 2016, 12 (7), 1833-42; Yu, et al. Advanced Materials 2018, 30, 1705383. Briefly, rats were anesthetized with 5% isoflurane (Aerrane, Baxter, Deerfield, Ill.) in 30% O2/70% N2O using a Tabletop Anesthesia system (Harvard Apparatus, USA). Isoflurane was then maintained at 1.5%. During the procedures, the body temperature of mice was maintained at 37.0±0.5° C. Regional cerebral blood flow (rCBF) was monitored using a laser Doppler flowmeter (AD Instruments Inc.) duration the course of surgery. […]
# Mice were given treatment intravenously at 0, 24 and 48 h after surgery. Mice were monitored for survival for 10 days and were euthanized if one of the following criteria was met: (1) the mouse's body weight dropped below 15% of its initial weight, or (2) the mouse became lethargic or sick and unable to feed. […] Three days later, the score of each mouse was assessed by a standard behavioral test and were scored as follows: (1) normal motor function, (2) flexion of torso and contralateral forelimb when animal was lifted by the tail, (3) hemiparalysis resulting in circling to the contralateral side when held by tail on flat surface, but normal posture at rest, (4) leaning to the contralateral side at rest, and (5) no spontaneous motor activity. […]
structure (smiles),measurement,setting,value
C[C@@H]1CC[C@H]2[C@@H](C)C(=O)O[C@@H]3O[C@@]4(C)CC[C@@H]1[C@]32OO4 [Artemisinin],bioavailability,[1],less than 10%
COc1ccc(Cl)cc1C(=O)NCCc1ccc(S(=O)(=O)NC(=O)NC2CCCCC2)cc1 [^11C-glyburide],"^11C-glyburide uptake, ischemic versus contralateral hemisphere",[2],no significant difference
COc1ccc(Cl)cc1C(=O)NCCc1ccc(S(=O)(=O)NC(=O)NC2CCCCC2)cc1 [glyburide],ability to penetrate the BBB,[3],limited ability to penetrate the BBB
same,therapeutic benefits compared with Gly-NP treatment,MCAO mice,significantly less efficacy

# Source: patent US20220168230A1, “NANOPARTICLE MEDIATED THERAPY” (Yale University, priority 2019, published 2022)
